Test results from patent US10258659B2, “Water soluble defructosylated pea extract, and use thereof as a prebiotic agent” (OLYGOSE, priority 2009, dated 2019).
Marks after values point to notes of the source that are not given here.

Conditions: human, in vivo

Abdominal noises F (frequency of the symptoms): 1.8 ^b
Abdominal noises I (intensity of the symptoms): 1.6 ^ab
Abdominal pain F (frequency of the symptoms): 1.6 ^ab
Abdominal pain I (intensity of the symptoms): 1.5 ^ab
Bloating F (frequency of the symptoms): 1.6 ^ab
Bloating I (intensity of the symptoms): 1.7 ^b
Cumulative grade: 21.3 ^b
Flatulence F (frequency of the symptoms): 2.9 ^b
Flatulence I (intensity of the symptoms): 2.5 ^b
Nausea F (frequency of the symptoms): 1.2 ^a
Nausea I (intensity of the symptoms): 1.1 ^a
Need to defecate F (frequency of the symptoms): 2.1 ^a
Need to defecate I (intensity of the symptoms): 1.7 ^a
Substance: β-galacto-oligosaccharides [β-GOS]
